Measurements: patent US20240158446A1, “CYCLIC COMPOUND HAVING SELECTIVE INHIBITORY ACTION ON KRAS OVER HRAS AND NRAS” (CHUGAI SEIYAKU KABUSHIKI KAISHA, priority 2021, published 2024)
Like-named read-outs stand apart in the source and are kept apart here.

Columns and labels:
[1] = test system: human lung cancer strain NCI-H441;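 note: cell proliferation inhibition after four days measured by CellTiter-Glo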
[2] = target: GDP-bound KRAS wild-type protein (Homo sapiens, UniProt P01116); assay: Binding to KRAS by surface plasmon resonance (SPR), Single Cycle Kinetics; conditions: GDP-bound KRAS wild-type protein, read-out: KRAS KD
Chain of GDP-bound KRAS wild-type protein (P01116 whole entry): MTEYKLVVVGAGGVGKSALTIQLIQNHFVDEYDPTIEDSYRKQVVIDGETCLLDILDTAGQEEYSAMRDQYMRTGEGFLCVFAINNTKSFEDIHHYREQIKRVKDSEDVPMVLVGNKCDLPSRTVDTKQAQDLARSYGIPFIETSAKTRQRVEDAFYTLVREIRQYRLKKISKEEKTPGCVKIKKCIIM

[3] = target: GDP-bound NRAS wild-type protein (Homo sapiens, UniProt P01111); assay: Binding to NRAS by surface plasmon resonance (SPR), Single Cycle Kinetics; conditions: for NRAS/KRAS (ratio of KD value with respect to GDP-bound NRAS wild-type protein to KD value with respect to KRAS): SPR KD ratio NRAS/KRAS, class symbols; for NRAS/KRAS (ratio of KD value for NRAS to KD value for KRAS): SPR, GDP-bound NRAS wild-type protein vs GDP-bound KRAS wild-type protein
Chain of GDP-bound NRAS wild-type protein (P01111 whole entry): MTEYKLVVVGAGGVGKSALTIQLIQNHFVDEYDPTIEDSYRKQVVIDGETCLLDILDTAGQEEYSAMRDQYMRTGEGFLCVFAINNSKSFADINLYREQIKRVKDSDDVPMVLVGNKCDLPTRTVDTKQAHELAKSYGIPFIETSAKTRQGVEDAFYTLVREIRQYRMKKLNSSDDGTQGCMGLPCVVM

[4] = target: GDP-bound HRAS wild-type protein (Homo sapiens, UniProt P01112); assay: Binding to HRAS by surface plasmon resonance (SPR), Single Cycle Kinetics; conditions: for HRAS/KRAS (ratio of KD value with respect to GDP-bound HRAS wild-type protein to KD value with respect to KRAS): SPR KD ratio HRAS/KRAS, class symbols; for HRAS/KRAS (ratio of KD value for HRAS to KD value for KRAS): SPR, GDP-bound HRAS wild-type protein vs GDP-bound KRAS wild-type protein
Chain of GDP-bound HRAS wild-type protein (P01112 whole entry): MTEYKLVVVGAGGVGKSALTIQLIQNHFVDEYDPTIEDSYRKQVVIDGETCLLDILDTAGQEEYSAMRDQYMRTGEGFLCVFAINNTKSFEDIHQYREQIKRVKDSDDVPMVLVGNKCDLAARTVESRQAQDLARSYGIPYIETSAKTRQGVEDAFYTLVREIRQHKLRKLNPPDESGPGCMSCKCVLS

[5] = SPR Single Cycle Kinetics, 1:1 binding model
[6] = SPR, Single Cycle Kinetics, 1:1 binding model

| Compound | IC50 [1] [nM] | Kd [2, 5] [nM] | Kd [2, 6] [nM] | Kd ([2]; SPR, Single Cycle Kinetics) [nM] | NRAS/KRAS (ratio of KD value with respect to GDP-bound NRAS wild-type protein to KD value with respect to KRAS) [3] | HRAS/KRAS (ratio of KD value with respect to GDP-bound HRAS wild-type protein to KD value with respect to KRAS) [4] | NRAS/KRAS (ratio of KD value for NRAS to KD value for KRAS) ([3]; KD ratio class) | HRAS/KRAS (ratio of KD value for HRAS to KD value for KRAS) ([4]; KD ratio class) | NRAS/KRAS (ratio of KD value for NRAS to KD value for KRAS) [3] | HRAS/KRAS (ratio of KD value for HRAS to KD value for KRAS) [4] |
| --- | --- | --- | --- | --- | --- | --- | --- | --- | --- | --- |
| CCO[C@@H]1C[C@H]2C(=O)NC3(CCC3)C(=O)N(C)[C@@H](C3CCCC3)C(=O)N(C)[C@H](C)CC(=O)N(C)[C@@H](CC3CCCC3)C(=O)N[C@@H]([C@@H](C)CC)C(=O)N(C)CC(=O)N(C)[C@H]3C/C=C\CCN(C3=O)[C@@H](Cc3ccc(C)cc3)C(=O)N(C)CC(=O)N[C@@H](CCc3cc(F)c(C(F)(F)F)c(F)c3)C(=O)N2C1 [PP1413] | 62.5 | – | 0.42 | – | – | – | B (a compound having 3 or more and less than 10 is denoted as B) | B (a compound having 3 or more and less than 10 is denoted as B) | – | – |
| CCO[C@@H]1C[C@H]2C(=O)NC3(CCC3)C(=O)N(C)[C@@H](C3CCCC3)C(=O)N(C)[C@H](C(=O)N3CCOCC3)CC(=O)N(C)[C@@H](Cc3ccsc3)C(=O)N[C@@H]([C@@H](C)CC)C(=O)N(C)CC(=O)N(C)[C@H]3CCCCCN(C3=O)[C@@H](Cc3ccc(C(F)(F)F)cc3)C(=O)N(C)CC(=O)N[C@@H](CCc3cc(F)c(C(F)(F)F)c(F)c3)C(=O)N2C1 [PP1164] | 95.9 | – | – | 0.52 | – | – | – | – | B (a compound having 3 or more and less than 10 is denoted as B) | B (a compound having 3 or more and less than 10 is denoted as B) |
| CCCOC[C@H]1C(=O)N[C@@H]([C@@H](C)CC)C(=O)N(C)CC(=O)N(C)[C@H]2C/C=C\CCN(C2=O)[C@@H](CC2CCC(F)(F)CC2)C(=O)N(C)CC(=O)N[C@@H](CCc2cc(F)c(C(F)(F)F)c(F)c2)C(=O)N2C[C@@H](C)C[C@H]2C(=O)NC2(CC(C)(C)C2)C(=O)N(C)[C@@H](C(CC)CC)C(=O)N(C)[C@H](C(=O)N(C)C)CC(=O)N1C [PP2490] | 162 | – | – | 1.7 | – | – | – | – | AA (a compound having 20 or more is denoted as AA) | A (a compound having 10 or more and less than 20 is denoted as A) |
| CCC[C@H]1C(=O)N[C@@H]([C@@H](C)CC)C(=O)N2CCC[C@H]2C(=O)N(C)[C@H]2C/C=C\CCN(C2=O)[C@@H](CC2CCCCC2)C(=O)N(C)CC(=O)N[C@@H](CCc2ccc(C(F)(F)F)c(OC)c2)C(=O)N2C[C@@H](C)C[C@H]2C(=O)N(C)C2(CCC2)C(=O)N(C)[C@@H](C2CCCC2)C(=O)N(C)[C@H](C(=O)N(C)C)CC(=O)N1C [PP2374] | 67.2 | – | – | 0.85 | – | – | – | – | A (a compound having 10 or more and less than 20 is denoted as A) | A (a compound having 10 or more and less than 20 is denoted as A) |
| CCO[C@@H]1C[C@H]2C(=O)NC3(CCC3)C(=O)N(C)[C@@H](C3CCCC3)C(=O)N(C)[C@H](C(=O)N3CCOCC3)CC(=O)N(C)[C@@H](Cc3ccc(C#N)cc3)C(=O)N[C@@H]([C@@H](C)CC)C(=O)N(C)CC(=O)N(C)[C@H]3CCCCCN(C3=O)[C@@H](Cc3ccc(F)cc3)C(=O)N(C)CC(=O)N[C@@H](CCc3cc(F)c(C(F)(F)F)c(F)c3)C(=O)N2C1 [PP1187] | 52.3 | – | – | 0.12 | – | – | – | – | B (a compound having 3 or more and less than 10 is denoted as B) | B (a compound having 3 or more and less than 10 is denoted as B) |
| CCO[C@@H]1C[C@H]2C(=O)NC3(CCC3)C(=O)N(C)[C@@H](C(CC)CC)C(=O)N(C)[C@H](C(=O)N(C)C)CC(=O)N(C)[C@@H](CC3CCCC3)C(=O)N[C@@H]([C@@H](C)CC)C(=O)N(C)CC(=O)N(C)[C@H]3C/C=C\CCN(C3=O)[C@@H](Cc3ccc(C(F)(F)F)cc3)C(=O)N(C)CC(=O)N[C@@H](CCc3ccc(Cl)c(Cl)c3)C(=O)N2C1 [PP1220] | 22.2 | – | 0.57 | – | – | – | AA (a compound having 20 or more is denoted as AA) | A (a compound having 10 or more and less than 20 is denoted as A) | – | – |
| CCO[C@@H]1C[C@H]2C(=O)NC3(CCC3)C(=O)N(C)[C@@H](C3CCCC3)C(=O)N(C)[C@H](C(=O)N3CCOCC3)CC(=O)N(C)[C@@H](CC3CCCC3)C(=O)N[C@@H]([C@@H](C)CC)C(=O)N(C)CC(=O)N(C)[C@H]3C/C=C\CCN(C3=O)[C@@H](Cc3ccc(C(F)(F)F)cc3)C(=O)N(C)CC(=O)N[C@@H](CCc3cc(F)c(C(F)(F)F)c(F)c3)C(=O)N2C1 [PP1393] | 18.2 | – | 0.19 | – | – | – | A (a compound having 10 or more and less than 20 is denoted as A) | A (a compound having 10 or more and less than 20 is denoted as A) | – | – |
| CC[C@H](C)[C@@H]1NC(=O)[C@H](CC2CC2)N(C)C(=O)C[C@@H](C(=O)N2CCOCC2)N(C)C(=O)[C@H](C2CCCC2)N(C)C(=O)C2(CCC2)NC(=O)[C@@H]2CCCN2C(=O)[C@H](CCc2ccc(C(F)(F)F)c(Cl)c2)NC(=O)CN(C)C(=O)[C@H](Cc2ccc(C(F)(F)F)cc2)N2C[C@H](C)CC[C@@H](C2=O)N(C)C(=O)CN(C)C1=O [PP1344] | 16.7 | – | 0.14 | – | – | – | B (a compound having 3 or more and less than 10 is denoted as B) | B (a compound having 3 or more and less than 10 is denoted as B) | – | – |

More lines, in order of falling IC50 [1], values ahead:

| IC50 [1] [nM] | Kd [2, 5] [nM] | Kd [2, 6] [nM] | Kd ([2]; SPR, Single Cycle Kinetics) [nM] | Compound | NRAS/KRAS (ratio of KD value with respect to GDP-bound NRAS wild-type protein to KD value with respect to KRAS) [3] | HRAS/KRAS (ratio of KD value with respect to GDP-bound HRAS wild-type protein to KD value with respect to KRAS) [4] | NRAS/KRAS (ratio of KD value for NRAS to KD value for KRAS) ([3]; KD ratio class) | HRAS/KRAS (ratio of KD value for HRAS to KD value for KRAS) ([4]; KD ratio class) | NRAS/KRAS (ratio of KD value for NRAS to KD value for KRAS) [3] | HRAS/KRAS (ratio of KD value for HRAS to KD value for KRAS) [4] |
| --- | --- | --- | --- | --- | --- | --- | --- | --- | --- | --- |
| 295 | 4.7 | – | – | CCC[C@H]1C(=O)N[C@@H](CC(C)C)C(=O)N(CCOC)CC(=O)N(C)[C@H]2C/C=C\CCN(C2=O)[C@@H](Cc2ccc(C)cc2)C(=O)N(C)CC(=O)N[C@@H](CCc2ccc(C(F)(F)F)c(Cl)c2)C(=O)N2C[C@H](OCC)C[C@H]2C(=O)NC2(CCC2)C(=O)N(C)[C@@H](C2CCCC2)C(=O)N(C)[C@H](C(=O)N(C)C)CC(=O)N1C [PP2546] | B (a compound having 3 or more and less than 10 is denoted as B) | B (a compound having 3 or more and less than 10 is denoted as B) | – | – | – | – |
| 30.5 | – | – | 0.55 | CCC[C@H]1C(=O)N[C@@H]([C@@H](C)CC)C(=O)N(C)CC(=O)N(C)[C@H]2C/C=C\CCN(C2=O)[C@@H](CC2CCC(F)(F)CC2)C(=O)N(C)CC(=O)N[C@@H](CCc2cc(F)c(C(F)(F)F)c(F)c2)C(=O)N2C[C@H](OCC)C[C@H]2C(=O)NC2(CC(C)(C)C2)C(=O)N(C)[C@@H](C(CC)CC)C(=O)N(C)[C@H](C(=O)N(C)C)CC(=O)N1C [PP2489] | – | – | – | – | A (a compound having 10 or more and less than 20 is denoted as A) | A (a compound having 10 or more and less than 20 is denoted as A) |
| 19.8 | – | 0.39 | – | CCC[C@H]1C(=O)N[C@@H]([C@@H](C)CC)C(=O)N(C)CC(=O)N(C)[C@H]2C/C=C\CCN(C2=O)[C@@H](Cc2ccc(C(F)(F)F)cc2)C(=O)N(C)CC(=O)N[C@@H](CCc2ccc(Cl)c(Cl)c2)C(=O)N2C[C@H](OCC)C[C@H]2C(=O)NC2(CCC2)C(=O)N(C)[C@@H](C(CC)CC)C(=O)N(C)[C@H](C(=O)N(C)C)CC(=O)N1C [PP1216] | – | – | AA (a compound having 20 or more is denoted as AA) | A (a compound having 10 or more and less than 20 is denoted as A) | – | – |
| 14.7 | – | – | 0.94 | CCC[C@H]1C(=O)N[C@@H]([C@@H](C)CC)C(=O)N2CCC[C@H]2C(=O)N(C)[C@H]2C/C=C\CCN(C2=O)[C@@H](CC2CCC(F)(F)CC2)C(=O)N(C)CC(=O)N[C@@H](CCc2ccc(C(F)(F)F)c(OC)c2)C(=O)N2C[C@H](OCC)C[C@H]2C(=O)N(C)C2(CCC2)C(=O)N(C)[C@@H](C2CCCC2)C(=O)N(C)[C@H](C(=O)N(C)C)CC(=O)N1C [PP2356] | – | – | – | – | A (a compound having 10 or more and less than 20 is denoted as A) | A (a compound having 10 or more and less than 20 is denoted as A) |
| 13.2 | 0.25 | – | – | CCC[C@H]1C(=O)N[C@@H]([C@@H](C)CC)C(=O)N(C)CC(=O)N(C)[C@H]2C/C=C\CCN(C2=O)[C@@H](Cc2ccc(C)cc2)C(=O)N(C)CC(=O)N[C@@H](CCc2ccc(Cl)c(Cl)c2)C(=O)N2C[C@H](OCC)C[C@H]2C(=O)NC2(CC(C)(C)C2)C(=O)N(C)[C@@H](CC(C)(C)C)C(=O)N(C)[C@H](C(=O)N(C)C)CC(=O)N1C [PP2714] | A (a compound having 10 or more and less than 20 is denoted as A) | A (a compound having 10 or more and less than 20 is denoted as A) | – | – | – | – |
| 6.3 | 0.11 | – | – | CCCOC[C@H]1C(=O)N[C@@H]([C@@H](C)CC)C(=O)N(C)CC(=O)N(C)[C@H]2C/C=C\CCN(C2=O)[C@@H](Cc2ccc(C)cc2)C(=O)N(C)CC(=O)N[C@@H](CCc2ccc(C(F)(F)F)c(OC)c2)C(=O)N2C[C@H](OCC)C[C@H]2C(=O)NC2(CC(C)(C)C2)C(=O)N(C)[C@@H](CC(C)(C)C)C(=O)N(C)[C@H](C(=O)N(C)C)CC(=O)N1C [PP2712] | A (a compound having 10 or more and less than 20 is denoted as A) | B (a compound having 3 or more and less than 10 is denoted as B) | – | – | – | – |
